Data taken from patent US7271253B1, “Safe process for the preparation of balsalazide” (Apotex Pharmachem Inc., priority 2006, dated 2007).

What was measured:
[1] = Solubility in water of N-(4-aminobenzoyl)-β-alanine salts; assay type: physicochemical
Description: According to one aspect of the invention, a more soluble salt of N-(4-aminobenzoyl)-β-alanine is provided which overcomes the use of the previous forms which were virtually insoluble in water.
(for example as depicted in FIG. 1). This latter temperature was selected as it provided for optimal reaction.
The preferred concentration of the aqueous sulfonic acid solution was about 4% to about 14%, more preferably about 7% to about 12%, and most preferably about 9%. The fact that higher concentrations were preferred, despite the decreased solubility of the salt, was a consequence of the fact that operationally, the use of about 9% sulfonic acid concentrations permitted proportionally lower reaction volumes, without compromising safety, and was advantageous for commercial scale-up.
FIG. 3—A comparison of the relative solubility of mesylate in differing concentrations of aqueous methanesulfonic acid.

[2] = RSST, different reaction temperatures, FIG. 1
Description: The decomposition of the intermediate was indicated by the pressure increase.
FIG. 1—Plot showing the rate of decomposition of diazonium mesylate at different temperatures. Increased pressure is indicative of the decomposition of the mesylate to form nitrogen gas.

[3] = DSC, FIG. 2

Nc1ccc(C(=O)NCCC(=O)O)cc1 [free-base, N-(4-aminobenzoyl)-β-alanine]
solubility at higher concentrations of sulfonic acid ([1]; differing concentrations of aqueous methanesulfonic acid, FIG. 3): decrease in the solubility

CS(=O)(=O)[O-].N#[N+]c1ccc(C(=O)NCCC(=O)O)cc1 [diazonium mesylate, N-(4-diazoniumbenzoyl)-β-alanine sulfonate salt]
temperature at which decomposition may start [2]: 25 °C
decomposition energy of solid relative to solution [3]: almost ten-fold higher

CS(=O)(=O)O.Nc1ccc(C(=O)NCCC(=O)O)cc1 [methanesulfonic acid salt, N-(4-ammoniumbenzoyl)-β-alanine sulfonate salt]
solubility in water [1]: unexpectedly high water solubility

Nc1ccc(C(=O)NCCC(=O)O)cc1 [chloride, N-(4-aminobenzoyl)-β-alanine]
solubility in water [1]: poorly soluble
solubility in water ([1]; listed as hydrochloride salt of 4-aminobenzoyl-β-alanine): poor solubility
